The results in this text go back to US12630565B2, “DNA-dependent protein kinase inhibitor” (DIZAL (JIANGSU) PHARMACEUTICAL CO., LTD., priority 2019, dated 2026).

Data set [1] concerns the target Full length human DNAPK protein (Homo sapiens, UniProt P78527). Briefly: DNA-PK enzymatic assay (TR-FRET). Format: biochemical. Particulars: 10 μM ATP, 1.6 μM peptide substrate. A general note: TR-FRET usually uses a lanthanide donor and a delayed reading to cut background.
The next data set deals with Rat hepatocyte. Briefly: Metabolic stability assay (rat hepatocyte Clint). It is filed as in vitro ADME. Particulars: 1 μM compound, cryopreserved hepatocytes 1 million cells per mL. How it is done:
Viability of cryopreserved hepatocytes was determined using trypan blue and the cell conc. was adjusted to […] with buffer. 1 μM compound (in Acetonitrile; 0.01% DMSO) was incubated with 250 μL of hepatocytecells (1 million cells per mL) in a 96 deep well plate. Reaction was stopped at different time points (0, 0.5, 5, 15, 30, 45, 60, 80, 100 and 120 min) by addition of 3 volumes of chilled acetonitrile to 20 μL of reaction mixture and centrifuged at 4° C. for 15 min. 40 μL of supernatant was diluted to 200 μL with pure water and analyzed using LC-MS/MS.
In vitro hepatocyte clearance was estimated based on determination of elimination half-life (T1/2) of compounds disappearance from their initial concentrations. Peak area ratios of each compound (test or control) to IS was calculated. Drug elimination rate constant k (min−1), T1/2 (min), and in vitro intrinsic clearance CLint (μL/min/E6) was calculated according to the following equations: […]
Where Chep (cells×μL^−1) is the cell concentration in the incubation system.

Data set [2] in a line: Metabolic stability assay (human microsomal Clint). Format: in vitro ADME. Particulars: human, pooled human liver microsomes, pH 7.4, 1 μM compound, 1 mg/mL microsomes, 1 mM NADPH, 37° C. How it is done: 1 μM compound was incubated with 1 mg/mL of microsomes (Pooled HLM with 20 mg/ml protein cone) at 37° C. in 250 μL of buffer (100 mM phosphate buffer, pH-7.4) containing 1 mM NADPH solution. 20 μL of incubation mix was quenched with 5 volumes chilled acetonitrile at different time points 0, 0.5, 5, 10, 15, 20 and 30 min in a fresh 96 well plate. The quench plate was centrifuged at 4000 rpm for 15 min. 40 μL of supernatant was diluted to 200 μL with pure water and analyzed using LC-MS/MS.
In vitro intrinsic clearance of the drugs in the microsome CLint (μl/min/mg) was calculated in the similar manner as the CLint in the hepatocyte.
In general terms: Liver microsomes are a subcellular fraction often used to study metabolism.

Another data set relates to MDR1, BCRP. In words: MDCKII-MDR1-BCRP efflux assay. Format: in vitro ADME. Particulars: dog, pH 7.4, 5 μM compound, HBSS pH 7.4, read-out: MDCK-Mdr1-BCRP efflux ratio. How it is done:
The apical-to-basolateral (A-B) and basolateral-to-apical (B-A) transport of compound in HBSS (25 mM HEPES, pH 7.4) was measured across MDCKII-MDR1-BCRP cell monolayers. Incubations were performed at approximately 37° C. for 120 min, with functionality of the test system being confirmed using 5 μM digoxin as a positive control substrate. Transport of 5 μM compound and control compound were determined by quantifying substrate concentration in the incubation medium of donor compartment at the beginning of the incubation period, and both donor and receiver compartments at the end of the incubation period. The data was used to calculate the apparent permeability (Papp). All incubations were performed in triplicate and integrity of the cell monolayers was confirmed using the marker Lucifer yellow.
The permeability coefficient Pexact (cm/s) was calculated using the equation: […]
The Pexact ratio was calculated using the equation: […]
The efflux ratio was calculated using the equation: […]
Where dCr/dt is the cumulative concentration of compound in the receiver chamber as a function of time (μM/s); Vr is the solution volume in the receiver chamber (0.1 mL on the apical side, 0.3 mL on the basolateral side); A is the surface area for the transport, i.e. 0.11 cm2 for the area of the monolayer; CO is the initial concentration in the donor chamber (μM).

Turning to `Cc1cc2ncnn2cc1Nc1ncc2c(C)nn(C3CC(C)OC(C)C3)c2n1` (single isomer, unassigned) [Example 86, 1-(2,6-dimethyltetrahydro-2H-pyran-4-yl)-3-methyl-N-(7-methyl-[1,2,4]triazolo[1,5-a]pyridin-6-yl)-1H-pyrazolo[3,4-d]pyrimidin-6-amine], the 50% inhibitory concentration (IC50) in data set [1] worked out at 2.4 nM. Further, in the data set on Rat hepatocyte, the “Rat hepatocyte CLint (μl/min/10^−6 cells)” value (shortened to “Rat hepatocyte CLint”) is recorded as 33.4 μl/min/10^−6 cells. Besides, the microsomal CLint at 1 μM in data set [2] was greater than 300 µL/min/mg. Also, the efflux ratio at 120 min, 5 μM with MDR1, BCRP was determined as 1.4.

`COCCn1nc(C)c2cnc(Nc3cn4ncnc4cc3C)nc21` [Example 63, 1-(2-methoxyethyl)-3-methyl-N-(7-methyl-[1,2,4]triazolo[1,5-a]pyridin-6-yl)-1H-pyrazolo[3,4-d]pyrimidin-6-amine] registered an IC50 in data set [1] of 36 nM. Besides, the “Rat hepatocyte CLint” value in the data set on Rat hepatocyte is on record as 5.3 μl/min/10^−6 cells. The compound further yielded a microsomal CLint at 1 μM in data set [2] of 5.5 µL/min/mg. The efflux ratio at 120 min, 5 μM with MDR1, BCRP is 2.4.

In data set [1], `Cc1cc2ncnn2cc1Nc1ncc2c(n1)c(C1CCOCC1)cn2C` [Example 3, 7-methyl-N-(5-methyl-7-(tetrahydro-2H-pyran-4-yl)-5H-pyrrolo[3,2-d]pyrimidin-2-yl)-[1,2,4]triazolo[1,5-a]pyridin-6-amine] yielded an IC50 of 10.2 nM. Further, the “Rat hepatocyte CLint” value in the data set with Rat hepatocyte amounted to 9.8 μl/min/10^−6 cells. In data set [2], this compound displayed a microsomal CLint at 1 μM of 39.7 µL/min/mg. Further, the efflux ratio at 120 min, 5 μM in the data set with MDR1, BCRP stood at 3.1.

For the compound `Cc1cc2ncnn2cc1Nc1ncc2c(C)nn(CCC#N)c2n1` [Example 72, 3-(3-methyl-6-((7-methyl-[1,2,4]triazolo[1,5-a]pyridin-6-yl)amino)-1H-pyrazolo[3,4-d]pyrimidin-1-yl)propanenitrile], inhibition in data set [1] was half-maximal at 1.8 nM (IC50). The “Rat hepatocyte CLint” value with Rat hepatocyte is listed as 1.0 μl/min/10^−6 cells. In data set [2], the microsomal CLint at 1 μM was 5.9 µL/min/mg. Further, the efflux ratio at 120 min, 5 μM in the data set with MDR1, BCRP is 7.5.

In turn, `Cc1cc2ncnn2cc1Nc1ncc2c(C)cn(C3CCOCC3)c2n1` [Example 15, 7-methyl-N-(5-methyl-7-(tetrahydro-2H-pyran-4-yl)-7H-pyrrolo[2,3-d]pyrimidin-2-yl)-[1,2,4]triazolo[1,5-a]pyridin-6-amine] yielded an IC50 in data set [1] of 35.2 nM. In addition, the “Rat hepatocyte CLint” value with Rat hepatocyte was 14.6 μl/min/10^−6 cells. The compound also showed an intrinsic metabolic clearance (microsomal CLint) at 1 μM in data set [2] of 69.6 µL/min/mg. Also, the efflux ratio at 120 min, 5 μM in the data set on MDR1, BCRP is 0.8.

In data set [1], `Cc1cc2ncnn2cc1Nc1ncc2c(C)nn([C@H]3C[C@@H](C)C3)c2n1` [Example 40, 3-methyl-N-(7-methyl-[1,2,4]triazolo[1,5-a]pyridin-6-yl)-1-((1s,3s)-3-methylcyclobutyl)-1H-pyrazolo[3,4-d]pyrimidin-6-amine] returned an IC50 of 4.2 nM. Besides, the “Rat hepatocyte CLint” value in the data set on Rat hepatocyte was determined as 144.4 μl/min/10^−6 cells. In data set [2], this compound yielded a microsomal CLint at 1 μM of 125 µL/min/mg. For the same compound, the efflux ratio at 120 min, 5 μM in the data set on MDR1, BCRP is 0.9.

With `Cc1cc2ncnn2cc1Nc1ncc2c(C)nn(CC3CCOC3)c2n1` (single isomer, unassigned) [Example 52, 3-methyl-N-(7-methyl-[1,2,4]triazolo[1,5-a]pyridin-6-yl)-1-((tetrahydrofuran-3-yl)methyl)-1H-pyrazolo[3,4-d]pyrimidin-6-amine], the half-maximal inhibitory concentration (IC50) in data set [1] came out at 10.8 nM. The “Rat hepatocyte CLint” value with Rat hepatocyte is recorded as 4.9 μl/min/10^−6 cells. The microsomal CLint at 1 μM in data set [2] turned out to be 14.1 µL/min/mg. Besides, the efflux ratio at 120 min, 5 μM in the data set on MDR1, BCRP is 3.2.

As for `Cc1cc2ncnn2cc1Nc1ncc2c(C)nn(C3CCC(OC(F)F)CC3)c2n1` (stereo not shown) [Example 23, 1-(4-(difluoromethoxy)cyclohexyl)-3-methyl-N-(7-methyl-[1,2,4]triazolo[1,5-a]pyridin-6-yl)-1H-pyrazolo[3,4-d]pyrimidin-6-amine], the IC50 in data set [1] is 0.7 nM. Further, the “Rat hepatocyte CLint” value with Rat hepatocyte is reported as 21.2 μl/min/10^−6 cells. In data set [2], the microsomal CLint at 1 μM stood at 115 µL/min/mg. In addition, the efflux ratio at 120 min, 5 μM with MDR1, BCRP came out at 0.9.

Take `CO[C@H]1CC[C@H](n2nc(C)c3cnc(Nc4cn5ccnc5cc4C)nc32)CC1` [Example 26, 1-((1r,4r)-4-methoxycyclohexyl)-3-methyl-N-(7-methylimidazo[1,2-a]pyridin-6-yl)-1H-pyrazolo[3,4-d]pyrimidin-6-amine]: the IC50 in data set [1] is 3 nM. In the data set on Rat hepatocyte, the “Rat hepatocyte CLint” value is listed as 13.6 μl/min/10^−6 cells. In data set [2], this compound gave an intrinsic metabolic clearance (microsomal CLint) at 1 μM of 134 µL/min/mg. Further, the efflux ratio at 120 min, 5 μM with MDR1, BCRP worked out at 4.2.

`[2H]C([2H])([2H])n1nc(C2CCOCC2)c2nc(Nc3cn4ncnc4cc3C)ncc21` [Example 10, 1-(methyl-d3)-N-(7-methyl-[1,2,4]triazolo[1,5-a]pyridin-6-yl)-3-(tetrahydro-2H-pyran-4-yl)-1H-pyrazolo[4,3-d]pyrimidin-5-amine] yielded an IC50 in data set [1] of 1.7 nM. Besides, in the data set on Rat hepatocyte, the “Rat hepatocyte CLint” value amounted to 6.8 μl/min/10^−6 cells. In data set [2], the microsomal CLint at 1 μM turned out to be 17.2 µL/min/mg. Moreover, the efflux ratio at 120 min, 5 μM with MDR1, BCRP is 7.2.

As to `Cc1cc2ncnn2cc1Nc1ncc2c(C)nn(C3CC4(C3)CC(F)(F)C4)c2n1` [Example 41, 1-(6,6-difluorospiro[3.3]heptan-2-yl)-3-methyl-N-(7-methyl-[1,2,4]triazolo[1,5-a]pyridin-6-yl)-1H-pyrazolo[3,4-d]pyrimidin-6-amine], inhibition in data set [1] was half-maximal at 1.4 nM (IC50). Moreover, the “Rat hepatocyte CLint” value with Rat hepatocyte is reported as 65.5 μl/min/10^−6 cells. Further, in data set [2], the intrinsic clearance (microsomal CLint) at 1 μM is 216 µL/min/mg. Besides, in the data set on MDR1, BCRP, the efflux ratio at 120 min, 5 μM turned out to be 1.5.

For the compound `Cc1cc2ncnn2cc1Nc1ncc2c(C)nn(C3CCOCC3C)c2n1` (single isomer, unassigned) [Example 112, 3-methyl-N-(7-methyl-[1,2,4]triazolo[1,5-a]pyridin-6-yl)-1-(3-methyltetrahydro-2H-pyran-4-yl)-1H-pyrazolo[3,4-d]pyrimidin-6-amine], the IC50 in data set [1] amounted to 3.7 nM. Besides, in the data set on Rat hepatocyte, the “Rat hepatocyte CLint” value was found to be 7.8 μl/min/10^−6 cells. Further, the microsomal CLint at 1 μM in data set [2] was found to be 47 µL/min/mg. In addition, in the data set on MDR1, BCRP, the efflux ratio at 120 min, 5 μM was 3.5.

In data set [1], `Cc1cc2ncnn2cc1Nc1ncc2c(C)nn(C3CCC4(CC3)CC4)c2n1` [Example 37, 3-methyl-N-(7-methyl-[1,2,4]triazolo[1,5-a]pyridin-6-yl)-1-(spiro[2.5]octan-6-yl)-1H-pyrazolo[3,4-d]pyrimidin-6-amine] had an IC50 of 0.9 nM. Besides, the “Rat hepatocyte CLint” value in the data set with Rat hepatocyte was determined as 71.1 μl/min/10^−6 cells. The compound further returned an intrinsic metabolic clearance (microsomal CLint) at 1 μM in data set [2] of 200 µL/min/mg. Further, the efflux ratio at 120 min, 5 μM with MDR1, BCRP is 0.6.

With `Cc1cc2nccn2cc1Nc1ncc2c(C)nn(C(C)C)c2n1` [Example 60, 1-isopropyl-3-methyl-N-(7-methylimidazo[1,2-a]pyridin-6-yl)-1H-pyrazolo[3,4-d]pyrimidin-6-amine], the IC50 in data set [1] came out at 13.5 nM. For the same compound, in the data set on Rat hepatocyte, the “Rat hepatocyte CLint” value came to 22.7 μl/min/10^−6 cells. Also, in data set [2], the microsomal CLint at 1 μM turned out to be 20.4 µL/min/mg. For the same compound, the efflux ratio at 120 min, 5 μM with MDR1, BCRP was 0.7.

`Cc1cc2ncnn2cc1Nc1ncc2c(C)nn(C3CCCOC3)c2n1` (single isomer, unassigned) [Example 29, 3-methyl-N-(7-methyl-[1,2,4]triazolo[1,5-a]pyridin-6-yl)-1-(tetrahydro-2H-pyran-3-yl)-1H-pyrazolo[3,4-d]pyrimidin-6-amine]: in data set [1], the IC50 was found to be 2 nM. For the same compound, in the data set with Rat hepatocyte, the “Rat hepatocyte CLint” value is 13.3 μl/min/10^−6 cells. Besides, the microsomal CLint at 1 μM in data set [2] stood at 24.5 µL/min/mg. Further, the efflux ratio at 120 min, 5 μM in the data set with MDR1, BCRP was 1.6.

On to `Cc1cc2ncnn2cc1Nc1ncc2c(C)nn([C@H]3C[C@H](C)C3)c2n1` [Example 39, 3-methyl-N-(7-methyl-[1,2,4]triazolo[1,5-a]pyridin-6-yl)-1-((1r,3r)-3-methylcyclobutyl)-1H-pyrazolo[3,4-d]pyrimidin-6-amine], for which, in data set [1], the concentration for half-maximal inhibition (IC50) was 2.1 nM. Also, in the data set with Rat hepatocyte, the “Rat hepatocyte CLint” value is 153.3 μl/min/10^−6 cells. Besides, in data set [2], the intrinsic metabolic clearance (microsomal CLint) at 1 μM came to 151 µL/min/mg. Also, in the data set with MDR1, BCRP, the efflux ratio at 120 min, 5 μM is 0.9.

In general, IC50 refers to the point on the concentration scale where inhibition reaches its midpoint. A higher IC50 goes with lower potency. Broadly, the microsomal CLint is a measure of how fast metabolising enzymes remove a compound, apart from limits set by blood flow. Low readings indicate greater metabolic stability, high ones faster metabolism.
